Test results as given in ChEMBL document CHEMBL5308541, “MAIP: An Open-Source Tool to Enrich High-Throughput Screening Output and Identify Novel, Druglike Molecules with Antimalarial Activity” (ACS Med Chem Lett, 2023).

Legend:
Plasmodium falciparum [1] = assay: Hit confirmation in dose-response curve in NF54 nanoGlo assay, at 72h; format: functional, organism-based, Erythrocyte; parameters: timepoint 72 hour; conditions: Plasmodium falciparum, NF54, Erythrocyte, 72 h
[2] = Hit confirmation in dose-response curve in HepG2 cytotoxicity assay, at 72h; format: toxicity, cell-based, Homo sapiens; parameters: timepoint 72 hour; conditions: human, HepG2 cells
Plasmodium falciparum [3] = assay: Hit confirmation in dose-response curve in NF54 pLDH assay, at 72h; format: functional, organism-based, Erythrocyte; parameters: timepoint 72 hour; conditions: Plasmodium falciparum, NF54, Erythrocyte, 72 h
Plasmodium falciparum [4] = assay: Hit confirmation in dose-response curve in NF54 nanoGlo assay, at 12h; format: functional, organism-based, Erythrocyte; parameters: timepoint 12 hour; conditions: Plasmodium falciparum, NF54, Erythrocyte, 12 h
Plasmodium falciparum [5] = assay: Hit confirmation in dose-response curve in Dd2 pLDH assay, at 72h; format: functional, organism-based, Erythrocyte; parameters: timepoint 72 hour; conditions: Plasmodium falciparum, Dd2, Erythrocyte, 72 h

SMILES | IC50 (Plasmodium falciparum [1]) [µM] | IC50 (Plasmodium falciparum [3]) [µM] | IC50 (Plasmodium falciparum [4]) [µM] | IC50 (Plasmodium falciparum [5]) [µM] | IC50 at 72 h [2] [µM]
O=C(NCCNc1ccnc2ccncc12)c1ccc(C(F)(F)F)cc1 | 3.24 | 5.75 | > 10 | 5.37 | > 10
CN(C)CCN1CCC(NC2CCC(O)(c3cccc(Cl)c3)CC2)CC1 (stereo not given) | 5.01 | 4.47 | > 10 | 3.72 | > 10
COc1ccc(CNCc2cc3ccccc3[nH]2)cc1CN(C)C | 3.39 | 3.47 | 5.89 | 2.29 | > 10
COc1ccnc(NCCCc2nc(-c3ccncc3)cs2)n1 | 4.79 | 5.89 | > 10 | 4.68 | > 10
CNc1nc(C)cc(N[C@@H]2COc3ccccc3C2)n1 | 3.39 | 5.25 | > 10 | 3.8 | > 10
CN(C[C@H](O)COc1ccccc1CN1CCC(c2ccncc2)CC1)C1CCCCC1 | 5.89 | 5.37 | > 10 | 5.5 | > 10
COc1ccc(CCNCc2ccc3[nH]cnc3c2)c(Cl)c1 | 3.02 | 4.47 | > 10 | 3.47 | > 10
OCCN1CCC(NCCc2cc(Cl)cc(Cl)c2)CC1 | 4.07 | 3.63 | 6.61 | 3.31 | > 10
CCCC(=O)NC1COCC1Cc1ccncc1 (stereo not given) | 6.31 | > 10 | 8.91 | > 10 | > 10
CCc1cc(Nc2ccc(N3CCOCC3)nc2)nc(-c2ccncc2)n1 | 3.72 | 4.47 | > 10 | 6.31 | > 10
C[C@H](Nc1nc(N)c2ccccc2n1)c1cccc(-n2cncn2)c1 | 4.47 | 5.89 | 10.2 | 4.17 | > 10
Nc1cc(N2CCC(c3nc4cc(F)ccc4[nH]3)CC2)nc(N2CCOCC2)n1 | 8.71 | 8.32 | > 10 | > 10 | > 10
CN([C@@H](c1ccccc1)c1ccccc1Br)S(=O)(=O)c1c[nH]c2ncccc12 | 7.08 | 9.77 | > 10 | 7.41 | > 10
CC(C)(C)n1ncc2c(NCc3ccc4cccnc4c3O)ncnc21 | 3.89 | 6.46 | 10 | 5.5 | 6.31
O[C@@H](CNCc1ccc2c(c1)CCO2)c1ccc(F)c(F)c1 | 2.29 | 8.32 | 5.62 | 3.72 | > 10
CN1C(C)(C)CC(NC(=O)c2ccc(-c3cc(-c4cccc(C(F)(F)F)c4)n[nH]3)cc2)CC1(C)C | 3.63 | 9.33 | 8.51 | 7.94 | > 10
Fc1ccc(N2CC[C@H](CN3CCC(c4c[nH]c5ccccc45)(c4c[nH]c5ccccc45)CC3)C2)cc1 | 1.91 | 6.61 | 2.51 | 4.27 | > 10
CN1CCN(c2ccc(C(F)(F)F)cc2NCc2cnc[nH]2)CC1 | 4.07 | 4.68 | 6.61 | 4.27 | > 10
Cc1cc(C)c(CN2CCN(C)CC2)cc1CNCCCn1ccnc1C | 3.89 | 3.89 | 7.41 | 3.39 | > 10
CN1CCN(CCOc2ccccc2CN(C)Cc2cc3cc(F)ccc3[nH]2)CC1 | 4.07 | 6.17 | 6.92 | 5.62 | 10.2
CN1CCC(N2CCC(NC(=O)c3ccc(S(=O)(=O)N(C)C4CCCCC4)cc3)CC2)CC1 | 4.27 | 5.89 | 9.33 | 3.89 | > 10
Cc1ccc2nc(-c3cccc(NC(=O)c4ccc(OC(F)(F)F)c(Cl)c4)c3)[nH]c2n1 | 3.31 | 6.46 | > 10 | 4.37 | > 10
O=C(CCc1nnc(-c2ccc(-c3ccccc3)cc2)o1)NC[C@@H]1CCCN2CCCC[C@H]12 | 4.07 | 5.13 | 8.51 | 6.46 | > 10
CC(C)(C)c1ccc(CNC[C@H](O)c2ccc(F)cc2F)cc1 | 0.891 | 2.82 | 1.45 | 1.95 | > 10
O=C(NCC1CC1)c1cc2c(OCc3ccc(Cl)cc3)cccc2[nH]1 | 3.89 | 10.2 | > 10 | 6.46 | > 10
Brc1cccc(NCCNC2CCN(Cc3cccnc3)CC2)c1 | 3.8 | 3.8 | 8.51 | 3.72 | > 10

Further lines, with some results ahead:

IC50 (Plasmodium falciparum [1]) [µM] | IC50 (Plasmodium falciparum [3]) [µM] | IC50 (Plasmodium falciparum [4]) [µM] | IC50 (Plasmodium falciparum [5]) [µM] | SMILES | IC50 at 72 h [2] [µM]
0.661 | 1.12 | 1.86 | 0.891 | CC(C)CCOc1ccc2[nH]c(-c3cc(N4CCC[C@@H]4CS(C)(=O)=O)ccn3)cc2c1 | > 10
0.55 | 0.437 | 1.1 | 0.437 | CN(CCCn1ccnc1)c1ccnc2cc(Br)ccc12 | > 10
2.51 | 2.95 | 5.37 | 2.82 | CN1CCC(N(Cc2ccccc2)C(=O)c2cc3cnccc3[nH]2)CC1 | > 10
1.35 | 1.35 | 1.91 | 1.2 | CN1CCN(CC2CCN(c3ccnc4ccccc34)CC2)CC1 | > 10
2.19 | 2.69 | 6.76 | 3.02 | COc1ccc2c(C)cc(NCCCN3CCC[C@H](C(N)=O)C3)nc2c1 | > 10
2.88 | 4.57 | 6.03 | 4.17 | COc1ccc2cc(-c3cc(N)ccn3)[nH]c2c1 | > 10
0.912 | 1.1 | 1.55 | 1.12 | COc1cc2nc(-c3ccc(F)c4cccnc34)nc(N)c2cc1OC | 1.02
0.912 | 1.1 | 3.02 | 1.1 | Cc1cc(N2CCC(NC3CCCC3Cc3ccc(F)cc3)CC2)nc(N)n1 (stereo not given) | 4.68
2.4 | 3.47 | > 10 | 3.47 | CCNc1cc(C)nc(NCCNC(=O)Nc2cc(F)cc(F)c2)n1 | > 10
2.34 | 3.72 | 3.98 | 3.31 | OC[C@H](CNCc1cc2ccc(F)cc2[nH]1)c1ccccc1Cl | > 10
1.32 | 1.15 | 2 | 1.12 | CCN1CCN([C@H]2CCN(c3ccnc4ccncc34)C2)CC1 | > 10
1.15 | 1.41 | 2.88 | 1.29 | Cc1ccccc1-c1cccc(N2CCC(NCC3CCNCC3)CC2)c1 | 5.5
2.45 | 2.63 | > 10 | 2.29 | CNc1nc(N[C@H]2CCCN(Cc3ccc(Cl)cc3)C2)nc2c1CCC2 | > 10
2.51 | 7.24 | 4.9 | 7.08 | COc1ccc2cc(NC(=O)c3cc(-c4c(C)nn(C)c4C)[nH]n3)cnc2c1 | > 10
0.977 | 1.7 | 1.62 | 1.23 | CN1CCC(N(C)C[C@H](Nc2ncnc3ccccc23)c2ccccc2)CC1 | > 10
2.51 | 9.12 | > 10 | 6.46 | Cc1nc(-c2ccccn2)nc(NC2CCN(CC(F)F)CC2)c1C | > 10
0.575 | 0.562 | 0.933 | 0.525 | CCOc1cc2nccc(N3C[C@H]4CN(C)C[C@H]4C3)c2cc1OCC | > 10
0.912 | 3.47 | > 10 | 1.45 | COC(CN(Cc1nc(N)nc(Nc2ccc(C)cc2)n1)Cc1nc(N)nc(Nc2ccc(C)cc2)n1)OC | > 10
0.912 | 1.41 | > 10 | 2.4 | COc1ccc2nc3cc(Cl)ccc3c(O)c2c1 | > 10
3.09 | 4.57 | 5.62 | 4.07 | COCCN1CC[C@H](CNC2CCN(c3ncc4ccc(F)cc4n3)CC2)C1 | > 10
2.95 | 1.26 | > 10 | 3.47 | CN(C)C1(CNc2nc(C(F)(F)F)nc3cc4c(cc23)OCO4)CCCCCC1 | > 10
1.55 | 1.35 | 2.69 | 1.23 | CCN(Cc1cnn(-c2cccc(Cl)c2)c1)CC1CCN(C2CCN(C)CC2)CC1 | > 10
1.45 | 1.38 | 2.75 | 1.2 | Cc1cnccc1NCCNCc1cccc(OCCCCN2CCOCC2)c1 | > 10
1.17 | 1.7 | 2.04 | 1.17 | COCCCN1CCC(Nc2ncnc3cc(C)c(C)cc23)CC1 | > 10
0.708 | 0.977 | 3.63 | 0.741 | Cc1ccccc1CN1CCC(CNc2c3c(nc4ccccc24)CCC3)CC1 | 5.25
